The values that follow come from patent US20230285441A1, “TREATMENT OF C[…] AURANOFIN” (GEORGIA STATE UNIVERSITY RESEARCH FOUNDATION, INC., priority 2020, published 2023).

Data set [1] relates to IL-6, IL-1β, TNFα and NF-kB. Description: mRNA expression of SARS-CoV-2-induced cytokines in Huh7 cells by qRT-PCR. In kind it is cell-based, human.
The subject of data set [2] is SARS-CoV-2 (USA-WA1/2020). In words: SARS-CoV-2 infectivity titers in cell culture supernatants by plaque assay. As to conditions: 4 µM auranofin, Huh7 cells, 48 hours after infection. The class given is cell-based.
Data set [3] concerns Huh7 cells. The note with it: 0.1-10 µM for 48 hours, trypan blue.
Where [4] appears, read: 4 µM auranofin, SARS-CoV-2 infected Huh7 cells.

For `CC[P](CC)(CC)=[Au][S][C@@H]1OC(COC(C)=O)[C@@H](OC(C)=O)C(OC(C)=O)C1OC(C)=O` (stereo partly drawn) [auranofin, 1-Thio-β-D-glucopyranosatotriethylphosphine gold-2,3,4,6-tetraacetate], the “increase in TNF-α levels (mRNA)” value in data set [1] is “absent”. In addition, in data set [1] (setting [4]), the “increase in the expression of IL-1β (mRNA)” value was “no increase” and the “increase in the expression of NF-kB (mRNA)” value is listed as “no increase”. The “SARS-COV-2 infectivity titers in cell culture supernatants” value in data set [2] is on record as “significantly reduced”. Besides, the “cytotoxic concentration of 50%” value in data set [3] is “approximately 5.7 µM”.
